Results from ChEMBL document CHEMBL1151901, “3-(aminomethyl)piperazine-2,5-dione as a novel NMDA glycine site inhibitor from the chemical universe database GDB” (Bioorg Med Chem Lett, 2009).
The source made the active and inactive calls. The calls are words filed in the database; no cut-off is given here.

Experiments:
[1] = target: Glutamate NMDA receptor (Rattus norvegicus) (UniProt P35439+Q00959+Q00960+Q00961+Q62645+Q8VHN2+Q9R1M7); experiment: Displacement of [3H]MDL105519 from rat brain NMDA receptor glycine binding site at 100 uM by Packard Topcount scintillation counter
[2] = target: Glutamate NMDA receptor; Grin1/Grin2a (Rattus norvegicus, UniProt P35439+Q00959); experiment: Activity at rat NR1/NR2A receptor expressed in Xenopus oocytes assessed as inhibition of glycine-induced electrophysiological response; assay type: cell-based, Oocyte
Sequence of Glutamate NMDA receptor; Grin1/Grin2a (Q00959 whole entry, other chains not shown): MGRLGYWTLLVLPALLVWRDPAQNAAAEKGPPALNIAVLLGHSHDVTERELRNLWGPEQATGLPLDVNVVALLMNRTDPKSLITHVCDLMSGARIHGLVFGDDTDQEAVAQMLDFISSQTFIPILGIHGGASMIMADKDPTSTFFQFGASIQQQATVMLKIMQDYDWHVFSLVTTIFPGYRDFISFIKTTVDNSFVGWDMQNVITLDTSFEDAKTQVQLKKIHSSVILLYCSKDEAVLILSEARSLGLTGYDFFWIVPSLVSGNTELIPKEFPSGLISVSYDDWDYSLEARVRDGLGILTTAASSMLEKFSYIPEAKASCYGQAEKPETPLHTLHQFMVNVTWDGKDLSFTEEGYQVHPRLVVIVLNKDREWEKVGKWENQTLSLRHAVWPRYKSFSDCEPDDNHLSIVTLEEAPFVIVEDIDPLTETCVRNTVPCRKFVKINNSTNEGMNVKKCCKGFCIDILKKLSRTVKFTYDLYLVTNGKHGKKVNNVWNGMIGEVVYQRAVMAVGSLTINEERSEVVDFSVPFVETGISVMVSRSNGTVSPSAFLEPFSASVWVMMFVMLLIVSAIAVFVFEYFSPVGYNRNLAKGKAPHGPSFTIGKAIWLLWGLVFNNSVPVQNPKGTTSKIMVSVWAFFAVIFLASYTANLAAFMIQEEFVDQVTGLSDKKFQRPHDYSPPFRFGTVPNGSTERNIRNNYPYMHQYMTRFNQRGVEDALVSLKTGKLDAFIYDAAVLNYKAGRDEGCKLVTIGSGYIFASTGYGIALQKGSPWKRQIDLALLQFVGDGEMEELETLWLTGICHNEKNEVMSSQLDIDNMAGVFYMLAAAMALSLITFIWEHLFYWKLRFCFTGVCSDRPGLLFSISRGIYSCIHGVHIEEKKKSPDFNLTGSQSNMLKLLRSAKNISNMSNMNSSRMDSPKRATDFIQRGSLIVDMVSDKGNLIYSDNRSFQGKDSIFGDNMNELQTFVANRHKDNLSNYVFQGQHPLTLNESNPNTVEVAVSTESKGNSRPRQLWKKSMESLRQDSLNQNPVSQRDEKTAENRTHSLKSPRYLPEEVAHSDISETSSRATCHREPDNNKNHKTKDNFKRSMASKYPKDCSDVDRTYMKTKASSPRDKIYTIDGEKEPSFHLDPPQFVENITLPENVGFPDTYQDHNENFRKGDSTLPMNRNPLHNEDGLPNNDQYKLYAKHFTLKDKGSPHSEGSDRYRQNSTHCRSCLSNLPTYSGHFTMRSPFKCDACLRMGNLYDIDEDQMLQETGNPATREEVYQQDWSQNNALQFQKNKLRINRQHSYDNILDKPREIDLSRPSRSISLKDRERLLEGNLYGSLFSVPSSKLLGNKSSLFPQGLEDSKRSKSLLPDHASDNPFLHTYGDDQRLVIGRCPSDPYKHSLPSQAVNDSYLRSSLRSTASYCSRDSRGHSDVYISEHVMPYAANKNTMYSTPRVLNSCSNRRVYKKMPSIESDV

Row | SMILES | Activity [1] | IC50 [2] | inhibition [1] | Kd [2]
1 | NCC1CNC(=O)C(=O)N1 (racemic) | inactive | – | – | –
2 | C[C@H](N)CC(=O)NCC(=O)O | – | 28 µM | – | –
3 | NCCCC(=O)NCC(=O)O | – | 65 µM | – | –
4 | NC[C@@H]1NC(=O)CNC1=O | – | 370 µM | 30% | 50 µM
